Results reported in patent publication US7858613B2, “Substituted benzo-condensed cycloheptanone derivatives and their use for producing drugs” (Gruenenthal GmbH, priority 2005, dated 2010).

Tests used:
human CB2 receptor = biological target: T1, human CB2 receptor (Homo sapiens, UniProt P34972); experiment: Affinity for cannabinoid receptor CB2, [3H]-CP 55,940 displacement on HEK-293EBNA membranes; details: 10 μM test substance; 0.33 nM [3H]-CP 55,940; percent inhibition of specific binding
T1 construct: expressed in transfected cells; host or cells: HEK-293EBNA cells (membranes)
Source text: VI. Determination of the Affinity for the Cannabinoid Receptor CB2 (CB2 Receptor):
To determine the affinity of the inventive compounds for the cannabinoid receptor, membranes from human recombinant HEK-293EBNA cells were used, which had been transfected stably with the human CB2 receptor. The radioligand used was tritium-labeled 5-(1,1-dimethylheptyl)-2-(5-hydroxypropyl)cyclohexyl)-1-alpha,2-beta,5-alpha)phenol ([3]H—CP 55,940 with 103.4 Ci/mmol, 1 mCi/ml). The determination was effected in a test buffer composed of 50 mM Tris-HCl, 2.5 mM EDTA, 5 mM MgCl2 and 1.0 mg/ml of fatty acid-free BSA. The test substances were each dissolved in DMSO.
The affinity of the inventive compounds for the CB2 receptor is determined by their ability to displace [3]H—CP 55,940 from CB2 receptors in membranes from HEK-293EBNA cells. To this end, in each case 8 μg of the membranes (20 μl of a solution from membranes in a concentration of 400 μg/ml) are incubated in wells on a microtiter plate with a 0.33 nM solution of ^[3]H-CP […] (120 Ci/mmol) in a total volume of test buffer of 200 μl at 30° C. for 90 minutes.
Subsequently, either the test substances or WIN 55212-2 to determine the unspecific binding, in each case dissolved in DMSO, are added to the wells so as to result in each case in a concentration of the corresponding substances of 10 μM.
Incubation at 30° C. is continued for a further 40 minutes. The binding reaction was ended by rapid filtration through GF/C filter paper which had been treated with 0.05% PEI using a Brandel cell harvester with 96 wells. The filters are washed nine times with 0.5 ml of ice-cooled washing buffer ([…] Tris-HCl, 5 mM MgCl2, 2.5 mM EDTA, 2% BSA, pH 7.4), air-dried and placed in scintillation fluid, and the radioactivity is determined with the aid of a scintillation counter.
The percentage displacement of the radioactive ligand ^[3]H-CP 55,940 from its binding to the CB2 receptor is reported as percent inhibition of the specific binding.

human CB1 receptor = biological target: T2, human CB1 receptor (Homo sapiens, UniProt P21554); experiment: Study on the human CB1 receptor, [3H]CP55,940 displacement on recombinant membranes; type: binding; details: 10 μM test substance; 1 nM [3H]CP55,940; human recombinant cell membranes
T2 construct: purchased Perkin Elmer RBHCB1M
Method: V. Functional Study on the Human CB1 Receptor
50 mM TRIS (from Fluka, Cat. No. 93349); 2.5 mM EDTA (from Fluka Cat. No. 03680); 5 mM MgCl2 (from Merck, Cat. No. 1.05833); 0.5 mg/ml BSA (from Sigma Cat. No. A-2153)
The membranes (RBHCB1M, from Perkin Elmer (human recombinant cell membranes)) were supplied in aliquots of 1 ml each in dry ice and stored at −80° C. The protein concentration of the batches was around 6 mg/ml. For the test, in each case 1 ml was thawed rapidly and diluted with 7 ml of incubation buffer (1:8). 20 μl of this dilution were used in the test. This corresponded to a protein content of approx. 15 μg in the batch.
MTP from Costar® of the “U type” (assay MTP; Cat. No. 3794) was used. The pipetting sequence is reproduced in Table 1 below.
After the pipetting operation had ended, a lid was placed on the MTP and the incubation was effected at 25° C. for 90 min.
Subsequently, the samples were removed by suction with the aid of a Brandel cell harvester (model MPXRI-96T) through a GF/B Unifilter MTP (from Packard, Cat. No. 6005177) presoftened with 0.05% PEI. The samples were washed twice with 200 ml of ice-cooled incubation buffer per 96-well MTP. Thereafter, the plate was dried in a drying cabinet +60° C. for 1 h. […] After a wait time of 1 h, the plate was analyzed on a “Trilux” from Wallac.

T2 sequence (P21554 whole entry): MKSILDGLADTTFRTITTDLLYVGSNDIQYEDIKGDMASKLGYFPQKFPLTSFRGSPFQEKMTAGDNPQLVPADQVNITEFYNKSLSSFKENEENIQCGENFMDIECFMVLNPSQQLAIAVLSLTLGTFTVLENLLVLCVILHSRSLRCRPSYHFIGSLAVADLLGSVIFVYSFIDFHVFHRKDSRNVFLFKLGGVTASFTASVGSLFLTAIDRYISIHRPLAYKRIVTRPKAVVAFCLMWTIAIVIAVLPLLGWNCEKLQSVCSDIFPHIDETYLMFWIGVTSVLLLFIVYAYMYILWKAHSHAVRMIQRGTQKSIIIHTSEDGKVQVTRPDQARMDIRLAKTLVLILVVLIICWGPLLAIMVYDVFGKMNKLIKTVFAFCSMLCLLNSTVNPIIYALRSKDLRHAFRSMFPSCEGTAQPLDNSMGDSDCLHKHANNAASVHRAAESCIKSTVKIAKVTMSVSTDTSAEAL
T1 sequence (P34972 whole entry): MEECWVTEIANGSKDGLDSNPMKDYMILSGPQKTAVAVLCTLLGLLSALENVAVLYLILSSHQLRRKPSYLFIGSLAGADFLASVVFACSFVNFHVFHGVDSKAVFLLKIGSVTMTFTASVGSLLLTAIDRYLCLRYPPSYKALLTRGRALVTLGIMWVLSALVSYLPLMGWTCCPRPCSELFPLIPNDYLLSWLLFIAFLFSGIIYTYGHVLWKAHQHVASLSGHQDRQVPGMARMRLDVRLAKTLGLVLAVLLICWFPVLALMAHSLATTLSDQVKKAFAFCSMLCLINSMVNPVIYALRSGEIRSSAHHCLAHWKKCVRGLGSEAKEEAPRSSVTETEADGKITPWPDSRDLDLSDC

Compound	inhibition at 10 µM (human CB2 receptor)	inhibition at 10 µM (human CB1 receptor)
O=C(NC1CCCCC1)OCC1(COC(=O)NC2CCCCC2)CCCc2ccccc2C1=O [Example Compound 8, Cyclohexylcarbamic acid 6-(cyclohexylcarbamoyloxymethyl)-5-oxo-6,7,8,9-tetrahydro-5H-benzocyclohepten-6-ylmethyl ester]	76.2%	47%
O=C(Nc1ccccc1)OCC1(COC(=O)Nc2ccccc2)CCSc2ccccc2C1=O [Example Compound 2, Phenylcarbamic acid 4-(phenylcarbamoyloxymethyl)-5-oxo-2,3,4,5-tetrahydro-benzo[b]thiepin-4-ylmethyl ester]	74.6%	42%
